Patent publication US11135223B2, “Compositions and methods for inhibiting Dkk-1” (YALE UNIVERSITY, priority 2016, dated 2021)

Tests used:
[1] = test system: leukocyte-platelet aggregate (CD45+CD41+ population); assay: Leukocyte-platelet aggregate (LPA) formation and PSGL-1 expression in peripheral blood, L. major infection; format: in vivo, mice
From the text: FIG. 12, comprising FIG. 12A through FIG. 12G, depicts results of experiments showing regulation of LPA formation by Dkk-1. FIG. 12A depicts AMNIS analysis of peripheral blood from 6-week old C57BL/6 male mice. FIG. 12B depicts flow cytometry analysis of the basal LPA population (CD45^+CD41^+) Dkk-1^d/d mice and their wildtype littermate controls. B-cell and CD4 T cell among CD45^+CD41^+ cells were monitored at the indicated time points in Dkk-1^d/d mice and their wildtype littermate controls challenged with 30 μg HDM extract/mouse. FIG. 12C depicts flow cytometry analysis of LPA formation in total CD45^+ cells, CD4 T cells, and neutrophils, in mice injected with Dkk-1 inhibitor (n=5) or DMSO vehicle (n=5) 24 hours prior to infection with L. major. FIG. 12D depicts flow cytometry analysis of peripheral blood at given time points for LPA formation in nine-week old C57BL/6 mice (n=5) injected with 300 ng of Dkk-1. […] Mean fluorescence intensity was normalized to unchallenged C57BL/6 mice. […] Normalized MFI for ICAM-1 expression and the percentages of LFA-1 high cells were measured by flow cytometry following injection of 300 ng of Dkk-1 intraperitoneally. […]
Human platelets were isolated as described from healthy volunteers (Tang et al., 2011, J Clin Invest 121:4462-76). […] Samples were analyzed by flow cytometry within 4 to 6 hours. […]

leukocytes = assay: Exogenous administration of Dkk-1 protein to mice; format: in vivo, C57BL/6 mice
Protocol: FIG. 11, comprising FIG. 11A through FIG. 11J, depicts results of experiments showing Dkk-1 facilitates leukocyte migration and regulates leukocyte-platelet aggregate formation in type 2 inflammation. FIG. 11A depicts flow cytometry analysis of CD45^+ cells in lung homogenates from nine-week old Dkk-1^d/d mice and wildtype littermate controls (n=5-6/group) 72 hours after challenge with 30 μg HDM allergen extract. FIG. 11B depicts analysis of percentages of CD45^+CD41^+ cells in peripheral blood from nine-week old Dkk-1^d/d mice and wildtype littermate controls collected at 4 hours and 24 hours after allergen challenge. FIG. 11C depicts flow cytometry analysis of CD45+ cells after Dkk-1 protein (300 ng/mouse) was injected intraperitoneally. […]
FIG. 12, comprising FIG. 12A through FIG. 12G, depicts results of experiments showing regulation of LPA formation by Dkk-1. […] B-cell and CD4 T cell among CD45^+CD41^+ cells were monitored at the indicated time points in Dkk-1^d/d mice and their wildtype littermate controls challenged with 30 μg HDM extract/mouse. […] Mean fluorescence intensity was normalized to unchallenged C57BL/6 mice. […] Normalized MFI for ICAM-1 expression and the percentages of LFA-1 high cells were measured by flow cytometry following injection of 300 ng of Dkk-1 intraperitoneally. […]

Molecule	PSGL-1 expression on leukocytes ([1]; L. major infection, peripheral blood)	elevation of LPA formation ([1]; pretreatment 24 h prior to infection with L. major, 4 h post-infection)	LPA formation (leukocytes; 300 ng of Dkk-1, without allergen or parasite challenge)	number of infiltrated leukocytes in the lung (leukocytes; 300 ng/mouse intraperitoneally, 72 hours after administration)
NCC1CCN(c2nccc(-c3ccc4ccccc4c3)n2)CC1 [WAY-262611, (1-(4-(naphthalen-2-yl)pyrimidin-2-yl)piperidin-4-yl)methanamine]	blocked the increase	reduced		
Dkk-1: Wnt antagonist Dickkopf-1 protein, expressed in CHO cells, added to cells or injected into mice (protein, UniProt O94907 32-266, looked up) Dickkopf-related protein 1: TLNSVLNSNAIKNLPPPLGGAAGHPGSAVSAAPGILYPGGNKYQTIDNYQPYPCAEDEECGTDEYCASPTRGGDAGVQICLACRKRRKRCMRHAMCCPGNYCKNGICVSSDQNHFRGEIEETITESFGNDHSTLDGYSRRTTLSSKMYHTKGQEGSVCLRSSDCASGLCCARHFWSKICKPVLKEGQVCTKHRRKGSHGLEIFQRCYCGEGLSCRIQKDHHQASNSSRLHTCQRH			increased	did not increase
